What was measured:
[1] = Penetration depth in sapwood blocks after immersion in aqueous QAC solution; assay type: physicochemical; conditions: sapwood blocks 2.5 cm×5.0 cm×12 cm, immersion in 5% strength aqueous solution, 24 hours at 20° C.
Method: Fine sapwood blocks of dimensions 2.5 cm×5.0 cm×12 cm were impregnated with the QAC shown in the table by immersion in an aqueous solution of in each case 5% strength. The immersion time was a standard 24 hours (at 20° C.).

[2] = system: fungus-infested soil (forest soil); assay: Soil burying method according to Schwammkeller: service life of impregnated beechwood bars; conditions: beechwood bars 1 cm×1 cm×40 cm, immersion in 0.5% strength solution for 24 hours, buried in fungus-infested soil, time until flexural breaking strength has fallen to 25% of the initial value
Method: Bars of beechwood (1 cm×1 cm×40 cm) were impregnated by immersion in a 0.5% strength solution of the SAC for 24 hours and then tested by the soil burying method according to Schwammkeller. For this, treated and untreated timbers were buried in fungus-infested soil (forest soil). The service life here is defined as the time after which the flexural breaking strength has fallen to 25% of the initial value of (untreated) comparison timbers of the same dimensions and type of wood.

Substance | Penetration depth [1] | Service life [2] [months] | Service life ([2]; listed as 10) [months] | Service life ([2]; listed as V5) [months]
N,N-didecyl-N-methyl-N-(polyoxyethyl)ammonium [Example 9] | 6-8 mm |  |  | 
N,N-didecyl-N-methyl-N-(polyoxyethyl)ammonium [Example V3, reference compound] | 2-3 mm | 4 |  | 
N,N-didecyl-N-methyl-N-(polyoxyethyl)ammonium [Example V4, reference compound] | 3-4 mm |  |  | 
N,N-didecyl-N-methyl-N-(polyoxyethyl)ammonium hydroxyacetate [Example 8] | 7-10 mm |  |  | 
N,N-didecyl-N-methyl-N-(polyoxyethyl)ammonium lactate [Example 7] | 7-8 mm | >9 |  | 
N,N-dimethyl-N-benzyl-N-(coconut alkyl)ammonium [Example 5] | 6-8 mm |  | >9 | 
N,N-dimethyl-N-benzyl-N-(coconut alkyl)ammonium [Example 6] | 7-8 mm |  |  | 
N,N-dimethyl-N-benzyl-N-(coconut alkyl)ammonium [Example V1, reference compound] | 1-3 mm |  |  | 3
N,N-dimethyl-N-benzyl-N-(coconut alkyl)ammonium [Example V2, reference compound] | 2-3 mm |  |  | 

From patent publication US6362370B1, “Wood preservatives” (Lonza AG, priority 1996, dated 2002)
